Assays:
[1] = test system: Escherichia coli; assay: Antibiotic activity against Escherichia coli ATCC 25922 by agar diffusion method; assay type: functional
[2] = test system: Bacillus subtilis; assay: Antibiotic activity against Bacillus subtilis ATCC 6633 by agar diffusion method; assay type: functional

Row | SMILES | inhibition zone (IZ) [1] [mm] | inhibition zone (IZ) [2] [mm]
1 | CC(C)C[C@@H]1NC(=O)[C@H](Cc2ccccc2)NC1=O | 8 | 10
2 | CC(C)[C@@H]1NC(=O)[C@H](Cc2ccccc2)NC1=O | 8 | 9

From ChEMBL document CHEMBL1158141, “A sorbicillinoid urea from an intertidal Paecilomyces marquandii” (2006)
